Measurements reported in US20260167622A1, “PAN-KRAS DEGRADING AGENT, AND PREPARATION METHOD THEREFOR AND USE THEREOF” (LEADINGTAC PHARMACEUTICAL (SHAOXING) CO., LTD., priority 2022, published 2026).

Legend:
Format in all cases: cell-based
[1] = test system: KRAS G12D mutant human lung cancer cell A427; assay: 3D cell proliferation inhibition assay, A427; details: A-427, 168 h, 3D culture, 7 days, CTG
Description: (§1) Test Example 6: 3D Cell Proliferation Inhibition Assay
(§2) The inhibitory effects of the compounds on 3D cell proliferation were investigated on KRAS G12C mutant human non-small cell lung cancer cell NCI-H358, KRAS G12D mutant human lung cancer cell A427, KRAS G12D mutant human gastric cancer cell AGS, KRAS G12D mutant human metastatic pancreatic cancer cell AsPc-1, KRAS G12V mutant human lung squamous carcinoma cell SW900, KRAS G12V mutant human colorectal cancer cell SW620, KRAS G13D mutant human colorectal cancer epithelial cell DLD-1, and KRAS WT human gastric cancer cell MKN1. The specific procedures were as follows:
(§3) 10 μL of each compound solution diluted in a gradient was added to corresponding wells of a 96-well low-adsorption microplate (PerkinElmer), so that the final concentrations of the test compounds in the reaction system were in a range of 10000-0.026 nM. The final concentration of DMSO was 0.2%. Then 90 µL of cells were correspondingly seeded into each well to achieve a cell density of 5×10^2 cells/well (the cell density of SW900 was 5×10^3 cells/well, and the cell density of MKN1 was 1×10^3 cells/well). In addition to test wells for the test compounds, both a DMSO control well and a medium control well were set, with the DMSO control well containing DMSO and cells and the medium well containing only a medium. After the sample loading, the 96-well low-adsorption microplate was incubated in an incubator at 37° C. with […] for 7 days. After 7 days, the microplate was taken out, and 100 μL of CTG reagent (Promega) was added to each well. The plate was incubated at room temperature for 60 m and read on a microplate reader EnVision by the chemiluminescence program. The inhibition rates of the compounds at each concentration were calculated using the formula for the percentage inhibition of cell proliferation: inhibition rate 00=(mean value of DMSO control group−single concentration reading value of compound)/(mean value of DMSO control group−mean value of medium control group)×100. Then non-linear curve fillings for logarithmic concentration-inhibition rate were performed by GraphPad Prism 8, and the IC50 values of the compounds were obtained (Table 6).

[2] = test system: KRAS G12D mutant human gastric cancer cell AGS; assay: 3D cell proliferation inhibition assay, AGS; details: 168 h, 3D culture, 7 days, CTG
Description: as §1, §2, §3

[3] = test system: KRAS G12C mutant human non-small cell lung cancer cell NCI-H358; assay: 3D cell proliferation inhibition assay, NCI-H358; details: NCI-H358, 168 h, 3D culture, 7 days, CTG
Description: as §1, §2, §3

[4] = test system: KRAS G12V mutant human lung squamous carcinoma cell SW900; assay: 3D cell proliferation inhibition assay, SW900; details: SW900, 168 h, 3D culture, 7 days, CTG
Description: as §1, §2, §3

[5] = test system: KRAS WT human gastric cancer cell MKN1; assay: 3D cell proliferation inhibition assay, MKN1; details: MKN-1, 168 h, 3D culture, 7 days, CTG
Description: as §1, §2, §3

[6] = target: T1, KRAS G12V protein in SW900 cells (Homo sapiens, UniProt P01116, G12V); assay: KRAS degradation assay (Western Blot) in SW900 cells; details: 24 h
T1 construct: endogenous in cells; host or cells: SW900
T1 sequence (P01116 1-188 isoform P01116-2 G12V): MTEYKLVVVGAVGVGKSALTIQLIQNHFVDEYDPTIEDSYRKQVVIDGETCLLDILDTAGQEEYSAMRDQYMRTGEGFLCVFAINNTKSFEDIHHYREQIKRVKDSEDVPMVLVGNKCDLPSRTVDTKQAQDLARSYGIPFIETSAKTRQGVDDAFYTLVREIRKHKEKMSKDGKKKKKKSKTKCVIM
Description: (§4) Test Example 5: KRAS G12C, KRAS G12D, KRAS G12V, KRAS G13D, and KRAS WT (Expanded) Degradation Assays
(§5) The degradation effect of the compounds on KRAS was investigated on KRAS G12C mutant human non-small cell lung cancer cell NCI-H358, KRAS G12D mutant human metastatic pancreatic cancer cell AsPc-1, KRAS G12D mutant human lung cancer cell A427, KRAS G12V mutant human colorectal cancer cell SW620, KRAS G12V mutant human lung cancer cell SW900, KRAS G13D mutant human colorectal cancer epithelial cell DLD-1, and KRAS WT human gastric cancer cell MKN-1. The specific procedures were as follows: 0.95 mL of cells were seeded into each well of a 24-well cell culture plate to achieve a cell density of 5×10^5 cells/well; and the cell plate was incubated in an incubator at 37° C. with 5% CO2 overnight. Then 50 μL of the compound solution after dilution was added to each of the wells with the corresponding cells, so that the final concentration of the compound was in a range of 0.03-3000 nM. The final concentration of DMSO was 0.25%. After the compounds were added, the cell plate was incubated in an incubator at 37° C. with 5% CO2 for 24 h. The culture medium in the 24-well cell culture plate was then removed, and the plate was washed twice with 1×PBS (KeyGEN). 120 μL of RIPA (strong) lysis buffer (Beyotime) (supplemented with 1 mM phenylmethylsulfonyl fluoride, a protease inhibitor mixture (Beyotime), and a protease phosphatase inhibitor mixture (Beyotime)) was added to lyse adherent SW900 cells at the bottom of the cell culture plate. After the plate was left to stand on ice for 30 min, the protein lysate in each well was transferred to a 1.5 mL centrifuge tube and centrifuged at 15000 g for 20 min at 4° C. The cell lysate supernatants after centrifugation were cryopreserved in a refrigerator at −80° C. for later use.
(§6) After the samples of the cell lysate supernatants that had been prepared were thawed from the refrigerator at −80° C., the total protein concentrations of the cell lysates were determined using a BCA protein quantification kit (Tiangen). The total protein concentrations of the samples were then adjusted to 0.5 μg/μL with PBS and 5×SDS-PAGE protein loading buffer (Beyotime), and the samples were incubated in a water bath at 100° C. for 15 min. The samples were then incubated in an ice bath for 5 min and centrifuged at 14000 g for 1 min at 4° C., and the supernatants were mixed well as loading samples for the Western Blot assay. The samples were loaded into wells of a 10% precast gel (KeyGEN) with a loading volume of 10 μL (total protein: 5 μg), a sufficient Tris-MOPS-SDS running buffer (Adamas) was added, and then electrophoresis was performed at a constant voltage of 120 V for 55 min. After the electrophoresis, the proteins on the gel were transferred to PVDF membranes at a constant current of 250 mA for 55 min. After the membrane transfer, the PVDF membranes were incubated in 1× Quick Block blocking buffer (Beyotime)at room temperature for 30 min. After the blocking, the PVDF membranes were separately incubated at 4° C. overnight with the KRAS antibody (Abcam) diluted in a ratio of 1:1000 and the β-actin antibody (Abcam) diluted in a ratio of 1:2000 in 5% BSA as the diluent, and then washed with 1×TBST buffer (2.4 g of Tris, 8.8 g of NaCl, 1.5 mL of Tween 20, with pH adjusted to 7.4, with the volume brought to 1 L) 3 times for 10 min/time. The membranes were incubated with a secondary antibody (Abcam) diluted in 5% BSA at room temperature for 2 h, and then washed with 1×TBST buffer 3 times for 10 min/time. Finally, the membranes were incubated with Clarity Western ECL Substrate (BIO-RAD) for 5 min for luminescence and color development, and a ChemiScope 6200 Touch chemiluminescence imaging system (Clinx) was used for color development and protein mapping. Gray value analysis of the protein maps was performed using the chemiluminescence analysis software (Clinx). […]

[7] = test system: KRAS G12D mutant human metastatic pancreatic cancer cell AsPc-1; assay: 3D cell proliferation inhibition assay, AsPc-1; details: ASPC1, 168 h, 3D culture, 7 days, CTG
Description: as §1, §2, §3

[8] = test system: KRAS G12V mutant human colorectal cancer cell SW620; assay: 3D cell proliferation inhibition assay, SW620; details: SW-620, 168 h, 3D culture, 7 days, CTG
Description: as §1, §2, §3

[9] = test system: KRAS G13D mutant human colorectal cancer epithelial cell DLD-1; assay: 3D cell proliferation inhibition assay, DLD-1; details: DLD-1, 168 h, 3D culture, 7 days, CTG
Description: as §1, §2, §3

[10] = target: T2, KRAS G12V protein in SW620 cells (Homo sapiens, UniProt P01116, G12V); assay: KRAS degradation assay (Western Blot) in SW620 cells
T2 construct: endogenous in cells; host or cells: SW620
T2 sequence (P01116 1-188 isoform P01116-2 G12V): as above
Description: as §4, §5, §6

[11] = target: T3, KRAS G13D protein in DLD-1 cells (Homo sapiens, UniProt P01116, G13D); assay: KRAS degradation assay (Western Blot) in DLD-1 cells; details: 24 h
T3 construct: endogenous in cells; host or cells: DLD-1
T3 sequence (P01116 1-188 isoform P01116-2 G13D): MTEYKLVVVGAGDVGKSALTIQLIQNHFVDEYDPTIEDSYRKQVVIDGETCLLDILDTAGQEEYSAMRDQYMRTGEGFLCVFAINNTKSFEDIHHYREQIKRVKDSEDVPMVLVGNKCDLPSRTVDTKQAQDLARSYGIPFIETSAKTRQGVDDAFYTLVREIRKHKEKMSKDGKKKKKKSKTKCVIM
Description: as §4, §5, §6

For `C#Cc1c(F)ccc2cc(O)cc(-c3ncc4c(N5CCC[C@@](C)(O)C5)nc(OCC5(CN6CCN(CC7CCC8(CC7)CCN(C(=O)c7ccc9c(c7)C(=O)N(C7CCC(=O)NC7=O)C9=O)CC8)CC6)CC5)nc4c3F)c12` (stereo partly drawn) [Example 13, 2-(2,6-dioxopiperidin-3-yl)-5-(9-((4-((1-(((7-(8-ethynyl-7-fluoro-3-hydroxynaphthalen-1-yl)-8-fluoro-4-((R)-3-hydroxy-3-methylpiperidin-1-yl)pyrido[4,3-d]pyrimidin-2-yl)oxy)methyl)cyclopropyl)methyl)piperazin-1-yl)methyl)-3-azaspiro[5.5]undecane-3-carbonyl)isoindoline-1,3-dione], which IC50 [1] is on record?
Its IC50 is 500 to 1000 nM.

And the IC50 [2]?
Its IC50 is 500 to 1000 nM.

And the IC50 [3]?
Its IC50 is 500 to 1000 nM.

And the IC50 [4]?
Its IC50 is no more than 50 nM.

What about the IC50 [5] of the same compound?
Its IC50 is 50 to 100 nM.

Which results are given for `CCc1cccc2cc(O)cc(-c3ccc4c(N5CCC[C@@](C)(O)C5)nc(OCC5(CN6CCN(CC7CCC8(CC7)CCN(C(=O)c7ccc(OC)c(N9CCC(=O)NC9=O)c7)CC8)CC6)CC5)nc4c3F)c12` [Example 23, (R)-1-(5-(9-((4-((1-(((7-(8-ethyl-3-hydroxynaphthalen-1-yl)-8-fluoro-4-(3-hydroxy-3-methylpiperidin-1-yl)quinazolin-2-yl)oxy)methyl)cyclopropyl)methyl)piperazin-1-yl)methyl)-3-azaspiro[5.5]undecane-3-carbonyl)-2-methoxyphenyl)dihydropyrimidine-2,4(1H,3H)-dione]?
DC50 [6]: ≤ 50 nM; Dmax [6]: 80 to 100%; IC50 [2]: 69.5 nM; IC50 [7]: 64.2 nM; IC50 [3]: 23.6 nM; IC50 [4]: 46.8 nM; IC50 [8]: 12.3 nM; IC50 [9]: 63.5 nM; IC50 [5]: 5.55 nM

How did the DC50 [6] turn out when `C#Cc1cccc2cc(O)cc(-c3ncc4c(N5CCC[C@@](C)(O)C5)nc(OCC5(CN6CCN(CC7CCC8(CC7)CCN(C(=O)c7ccc(C)c(N9CCC(=O)NC9=O)c7)CC8)CC6)CC5)nc4c3F)c12` [Example 27, (R)-1-(5-(9-((4-((1-(((7-(8-ethynyl-3-hydroxynaphthalen-1-yl)-8-fluoro-4-(3-hydroxy-3-methylpiperidin-1l-yl)pyrido[4,3-d]pyrimidin-2-yl)oxy)methyl)cyclopropyl)methyl)piperazin-1-yl)methyl)-3-azaspiro[5.5]undecane-3-carbonyl)-2-methylphenyl)dihydropyrimidine-2,4(1H,3H)-dione] was run?
Its DC50 is no more than 50 nM.

What about the Dmax [6] of the same compound?
The Dmax was 80 to 100%.

And the IC50 [7]?
Its IC50 is no more than 50 nM.

And the IC50 [3]?
The IC50 was no more than 50 nM.

What about the IC50 [4] of the same compound?
Its IC50 is no more than 50 nM.

What about the IC50 [8] of the same compound?
The IC50 was 3.47 nM.

And the IC50 [5]?
The IC50 was no more than 50 nM.

Which DC50 [6] does the source give for `C#Cc1c(F)ccc2cc(O)cc(-c3ccc4c(N5CCC[C@@](C)(O)C5)nc(OCC5(CN6CCN(CC7CCC8(CC7)CCN(C(=O)c7ccc(C)c(N9CCC(=O)NC9=O)c7)CC8)CC6)CC5)nc4c3F)c12` [Example 41, (R)-1-(5-(9-((4-((1-(((7-(8-ethynyl-7-fluoro-3-hydroxynaphthalen-1-yl)-8-fluoro-4-(3-hydroxy-3-methylpiperidin-1-yl)quinazolin-2-yl)oxy)methyl)cyclopropyl)methyl)piperazin-1-yl)methyl)-3-azaspiro[5.5]undecane-3-carbonyl)-2-methylphenyl)dihydropyrimidine-2,4(1H,3H)-dione] here?
The DC50 was no more than 50 nM.

And the Dmax [6]?
Its Dmax is 80 to 100%.

And the IC50 [7]?
The IC50 was 50 to 100 nM.

And the IC50 [4]?
The IC50 was no more than 50 nM.

What about the IC50 [8] of the same compound?
Its IC50 is 9.08 nM.

What about the IC50 [5] of the same compound?
The IC50 was no more than 50 nM.

Which results are given for `C#Cc1c(F)ccc2cc(O)cc(-c3ncc4c(N5CCC[C@@](C)(O)C5)nc(OC[C@H](C)CN5CCN(CC6CCC7(CC6)CCN(C(=O)c6ccc(CC)c(N8CCC(=O)NC8=O)c6)CC7)CC5)nc4c3F)c12` [Example 133, 1-(2-ethyl-5-(9-((4-((R)-3-((7-(8-ethynyl-7-fluoro-3-hydroxynaphthalen-1-yl)-8-fluoro-4-((R)-3-hydroxy-3-methylpiperidin-1-yl)pyrido[4,3-d]pyrimidin-2-yl)oxy)-2-methylpropyl)piperazin-1-yl)methyl)-3-azaspiro[5.5]undecane-3-carbonyl)phenyl)dihydropyrimidine-2,4(1H,3H)-dione]?
DC50 ([10]; 24 h): 6.73 nM; Dmax ([10]; SW-620, 24 h): 98.9%; DC50 [11]: 7.28 nM; Dmax [11]: 100%; IC50 [7]: 24 nM; IC50 [3]: 5.58 nM; IC50 [8]: 2.93 nM; IC50 [9]: 5.68 nM; IC50 [5]: 9.19 nM
